Test results: patent US20130095505A1, “DETECTION OF LIPID OXIDISING ABZYMES IN SAMPLES” (priority 2005, published 2013)
Entries after “also recorded” stand apart in the source; their conditions may differ. Like-named read-outs stand apart in the source and are kept apart here.

Assays:
anti-Chlamydia abzymes [1] = format: biochemical, human
Experimental: (§1) For chemical inactivation, a diluent solution was divided into two portions. In one portion, an abzyme inhibitor was added.
(§2) The serum sample was split in two aliquots and one aliquot was diluted by solution containing the abzyme inhibitor, the second aliquot was diluted by the control solution. The aliquots were then tested in the same fashion.
Lipid peroxidation was assessed as a level of MDA concentration, which was measured by spectrophotometric methods [Draper, H. H. et al Free Radio. Biol. Med. (1993) 15, 353]. Briefly, the level of abzymes in a sample was determined as follows: Samples of sera were diluted 1:1 by 0.05M acetate buffer pH 4.0 to make the final pH of these samples between 5.6-5.8. 994 μl of the diluted serum was mixed with 10 μl of the commercial live ovine Chlamydia vaccine (Intervet). Samples were incubated overnight (12-16 hours) at 37° C. 250 μl of 40% trichloroacetic acid and 250 μl of 1 mM 2-thiobarbituric acid was added to each sample. All samples were placed in a water bath and boiled for 30 minutes. Samples were cooled down and centrifuged at 3,000 g for 10 minutes. The supernatants were collected and their absorption measured at λ525 nm to determine the concentration of malondialdehydes (MDA), which are products of lipid peroxidation.

anti-Chlamydia abzymes [2] = format: biochemical, human; remark: listed apart in the source
Experimental: as §1, §2
ELISA assays were performed using Medac materials and reagents, which were used in accordance with the manufacturers instructions.
Briefly, serum samples from patients were treated as described above. 50 μl of sample diluent was pipetted into microtitre well Al as blank, and 50 μl of the negative control, Positive Control and the diluted patients' samples were pipetted into other microtitre wells. The microplate wells were incubated for 60 min (±5 min) at 37° C. (±1° C.) in a humid chamber and then washed three times with 200 μl wash buffer per well. 50 μl of Conjugate was then added to each well and the microplate wells incubated again for 60 min (±5 min) at 37° C. (±1° C.) in a humid chamber and then washed. 50 μl of TME-Substrate, was added to each well and the microplate wells incubated for 30 min (±2 min) at 37° C. (±1° C.) in a humid chamber. The reaction was stopped by adding 100 μl of Stop Solution, to each well.
Photometric reading was performed at 450 nm (ref. 620-650 nm) within 15 min after adding the Stop Solution.
To calculate the results, the OD value of the blank (well Al) was subtracted from all other OD values. […] Cut-off=mean OD value of the Negative Control+0.380. Grey zone=Cut-off±10%
If there was a difference between 10 and 15% (or an increase in one titer in MIF) of the signal between treated and non-treated samples the conclusion was that the activity of the abzymes was unclear, or in the “grey” zone.

[3] = serum with live ovine Chlamydia vaccine, pH 5.6-5.8, overnight 37° C.
[4] = serum diluted with inhibitor solution vs control solution
[5] = summary in text, tested by ELISA and the lipid oxidation assay

Compound	Inhibition of abzymes ability to cause: Serum lipid peroxidation, in MDA assay (anti-Chlamydia abzymes [1]; pH 5.6)	Inhibition of abzymes ability to cause: Damage of Chlamydia pneumoniae antigen, in ELISA (anti-Chlamydia abzymes [2])	Inhibition of abzymes ability to cause: Serum lipid peroxidation, in MDA assay (anti-Chlamydia abzymes [1]; [3])	Inhibition of abzymes ability to cause: Damage of Chlamydia pneumoniae antigen, in ELISA (anti-Chlamydia abzymes [2]; [4])	further results
Cc1c(O)cc2c(c1C)O[C@](C)(CCC[C@H](C)CCC[C@H](C)CCCC(C)C)CC2 [(+) y-Tocopherol]	Negative	Negative			
Cc1c(C)c2c(c(C)c1O)CC[C@@](C)(CCC[C@H](C)CCC[C@H](C)CCCC(C)C)O2 [(+) α-Tocopherol]			Negative	Negative	
CC(=O)Oc1ccccc1C(=O)O [Acetyl salicylic acid]			Positive	Positive	Inhibition of abzyme activity (statement in text) (anti-Chlamydia abzymes [2]; tested by ELISA and the lipid oxidation assay): inhibit abzyme activity; also recorded: abzyme inhibitors
O=C1O[C@H]([C@@H](O)CO)C(O)=C1O [Ascorbic acid]			Positive	Positive	Inhibition of abzyme activity (statement in text) (anti-Chlamydia abzymes [2]; [5]): inhibit abzyme activity; Inhibition of abzyme activity (statement in text) (anti-Chlamydia abzymes [2]; summary in text, tested by ELISA and the lipid oxidation assay, listed as ascorbic acid): abzyme inhibitors
O=C(O)c1ccccc1 [Benzoic acid]	Negative	Negative			
OC[C@@H](O)[C@@H](O)[C@H](O)[C@H](O)CO [D-Mannitol]			Negative	Negative	
C[S+](C)[O-] [DMSO]			Positive	Positive	Inhibition of abzyme activity (statement in text) (anti-Chlamydia abzymes [2]; [5]): inhibit abzyme activity; also recorded: abzyme inhibitors; Inhibition of abzyme activity (statement in text) (anti-Chlamydia abzymes [2]; tested by ELISA and the lipid oxidation assay, listed as DMS): abzyme inhibitors
O=C(O)CN(CCN(CC(=O)O)CC(=O)O)CC(=O)O [EDTA]	Positive	Positive			Inhibition of abzyme activity (statement in text) (anti-Chlamydia abzymes [2]): inhibit abzyme activity
O=C(O)CN(CCOCCOCCN(CC(=O)O)CC(=O)O)CC(=O)O [EGTA]				Positive	Inhibition of abzyme activity (statement in text) (anti-Chlamydia abzymes [2]; [5]): inhibit abzyme activity
CC(C)=CCC/C(C)=C/C=C/C(C)=C/C=C/C(C)=C/C=C/C=C(C)/C=C/C=C(C)/C=C/C=C(\C)CCC=C(C)C [Lycopene]			Negative	Negative	
CC[C@H]1OC(=O)[C@H](C)C(=O)[C@H](C)[C@@H](O[C@@H]2O[C@H](C)C[C@H](N(C)C)[C@H]2O)[C@](C)(OC)C[C@@H](C)C(=O)[C@H](C)[C@H]2N(CCCCn3cnc(-c4cccnc4)c3)C(=O)O[C@]12C [Telithromycin, Ketek, Telithromycin]			Positive	Positive	Inhibition of abzyme activity (statement in text) (anti-Chlamydia abzymes [2]; summary in text, tested by ELISA and the lipid oxidation assay, listed as telithromycin): abzyme inhibitors; Inhibition of abzyme activity (statement in text) (anti-Chlamydia abzymes [2]; summary in text, tested by ELISA and the lipid oxidation assay, listed as telithromycin ketek): inhibit abzyme activity; Inhibition of abzyme activity (statement in text) (anti-Chlamydia abzymes [2]; summary in text, tested by ELISA and the lipid oxidation assay, listed as telithromycin-ketek): abzyme inhibitors
CC[C@H]1OC(=O)[C@H](C)[C@@H](O[C@H]2C[C@@](C)(OC)[C@@H](O)[C@H](C)O2)[C@H](C)[C@@H](O[C@@H]2O[C@H](C)C[C@H](N(C)C)[C@H]2O)[C@](C)(O)C[C@@H](C)CN(C)[C@H](C)[C@@H](O)[C@]1(C)O [azithromycin]					Inhibition of abzyme activity (statement in text) (anti-Chlamydia abzymes [2]; [5]): abzyme inhibitors
CC1=C(/C=C/C(C)=C/C=C/C(C)=C/C=C/C=C(C)/C=C/C=C(C)/C=C/C2=C(C)CCCC2(C)C)C(C)(C)CCC1 [β-Carotene]	Negative	Negative			
(+) Catechin gallate			Positive	Positive	Inhibition of abzyme activity (statement in text) (anti-Chlamydia abzymes [2]; summary in text, tested by ELISA and the lipid oxidation assay, listed as (+) catechin gallate): abzyme inhibitors; Inhibition of abzyme activity (statement in text) (anti-Chlamydia abzymes [2]; summary in text, tested by ELISA and the lipid oxidation assay, listed as catechin gallate): inhibit abzyme activity; also recorded: abzyme inhibitors
Haemoglobin	Positive	Positive			Inhibition of abzyme activity (statement in text) (anti-Chlamydia abzymes [2]): inhibit abzyme activity; also recorded: abzyme inhibitors
